Laboratory results published in patent US6204282A, “Benzimidazole compounds that are vitronectin receptor antagonists” (Schering Corporation, priority 1999, dated 2001).

Key:
αvβ3 receptor = target: T1, αvβ3 receptor (Homo sapiens, UniProt P05106+P06756); test: competition radioligand binding assay, 125I-echistatin to purified αvβ3 receptor; settings: inhibition of specific binding of 125I-echistatin (0.05 nM), 3 hour incubation at room temperature
T1 construct: αvβ3 receptor (purified from human placenta); from tissue; host or cells: human placenta

αllbβ3 receptor = αllbβ3 receptor (Homo sapiens, UniProt P05106+P08514); test: similar competitive assay with purified αllbβ3 receptor and 125I-echistatin (specificity index versus αvβ3); assay type: binding; settings: IC50 αllbβ3 / IC50 αvβ3
Description: The specificity index, which is a measure of the relative binding affinity for αvβ3 versus αllbβ3, may be determined by dividing the IC50 value for αllbβ3by the IC50 value for αvβ3.

SMILES	IC50 (αvβ3 receptor) [nM]	SPECIFICITY αIIb β3/αvβ3 (specificity index) (αllbβ3 receptor)
CC(=O)N(Cc1cccc(C(=O)NC[C@H](NC(=O)OCc2ccccc2)C(=O)O)c1)Cc1nc2ccccc2[nH]1 [Example 5-8]	~500	–
CC(C)NC(=O)N(Cc1ccc(C(=O)NC[C@H](NC(=O)OCc2ccccc2)C(=O)O)cc1)Cc1nc2ccccc2[nH]1 [Example 5-30]	2.3	296
O=C(N[C@@H](CNC(=O)c1cccc(CN(Cc2nc3ccccc3[nH]2)C(=O)c2ccc(Cl)cc2)c1)C(=O)O)OCc1ccccc1 [Example 5-7]	~500	–
O=C(N[C@@H](CNC(=O)c1ccc(CN(Cc2nc3ccccc3[nH]2)C(=O)c2ccc(Cl)cc2)cc1)C(=O)O)OCc1ccccc1 [Example 5-2]	6.5	–

More lines, in order of falling IC50 (αvβ3 receptor), values ahead:

IC50 (αvβ3 receptor) [nM]	SPECIFICITY αIIb β3/αvβ3 (specificity index) (αllbβ3 receptor)	SMILES
5.6	87	O=C(N[C@@H](CNC(=O)c1ccc(CN(Cc2nc3ccccc3[nH]2)C(=O)C(F)(F)F)cc1)C(=O)O)OCc1ccccc1 [Example 5-12]
3.4	70	CCCC(=O)N(Cc1ccc(C(=O)NC[C@H](NC(=O)OCc2ccccc2)C(=O)O)cc1)Cc1nc2ccccc2[nH]1 [Example 5-11]
2.8	19	CN(C)C(=O)N(Cc1ccc(C(=O)NC[C@H](NC(=O)OCc2ccccc2)C(=O)O)cc1)Cc1nc2ccccc2[nH]1 [Example 5-41]
1.9	–	CC(=O)N(Cc1ccc(C(=O)NC[C@H](NC(=O)OCc2ccccc2)C(=O)O)cc1)Cc1nc2ccccc2[nH]1 [Example 5-3]
